Positions count from the first letter of the chain named. Where a SMILES comes first, the peptide text is derived from it. Bridges are numbered along the chain shown (N, C = ends).
Legend:
Test in all cases: ERK1/2 phosphorylation
Format in all cases: cell-based
hCTR I279A = molecular target: T1, hCTR I279A (Homo sapiens, UniProt P30988, I279A); conditions: CV1-FlpIn cells, mean ± S.E.M.; for Emax: pERK maximal response
T1 construct: expressed in transfected cells
T1 sequence (P30988 25-474 I279A): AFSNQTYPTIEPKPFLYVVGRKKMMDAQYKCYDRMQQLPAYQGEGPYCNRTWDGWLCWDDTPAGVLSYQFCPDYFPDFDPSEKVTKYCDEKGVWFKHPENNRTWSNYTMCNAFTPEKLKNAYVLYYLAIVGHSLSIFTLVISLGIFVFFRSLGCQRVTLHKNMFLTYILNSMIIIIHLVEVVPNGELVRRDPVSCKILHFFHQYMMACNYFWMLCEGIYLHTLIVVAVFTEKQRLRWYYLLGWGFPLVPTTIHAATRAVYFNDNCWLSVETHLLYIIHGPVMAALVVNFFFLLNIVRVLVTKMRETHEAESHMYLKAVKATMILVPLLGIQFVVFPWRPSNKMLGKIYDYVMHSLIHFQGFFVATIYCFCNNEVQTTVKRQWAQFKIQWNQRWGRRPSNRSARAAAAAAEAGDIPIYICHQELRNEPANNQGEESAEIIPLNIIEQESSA
Summary of the method: (§1)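 Read-out is phospho-ERK1/2, reported relative to the 10% FBS maximum taken at 6 min. Wells held 2.5 × 10^4 cells seeded the night before. Potency and efficacy reflect functional affinity, efficacy and stimulus-response coupling combined.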

hCTR L291A = molecular target: T2, hCTR L291A (Homo sapiens, UniProt P30988, L291A); conditions: CV1-FlpIn cells, mean ± S.E.M.; for Emax: pERK maximal response
T2 construct: expressed in transfected cells
T2 sequence (P30988 25-474 L291A): T1 sequence (P30988 25-474 I279A) with A255I, L267A
Summary of the method: as §1

hCTR L298A = molecular target: T3, hCTR L298A (Homo sapiens, UniProt P30988, L298A); conditions: CV1-FlpIn cells, mean ± S.E.M.; for Emax: pERK maximal response; for EC50: pERK, three-parameter logistic fit
T3 construct: c-Myc (N); expressed in transfected cells
T3 sequence (P30988 25-474 L298A): T1 sequence (P30988 25-474 I279A) with A255I, L274A
Summary of the method: as §1

hCTR L368A = molecular target: T4, hCTR L368A (Homo sapiens, UniProt P30988, L368A); conditions: CV1-FlpIn cells, mean ± S.E.M.; for Emax: pERK maximal response; for EC50: pERK, three-parameter logistic fit
T4 construct: c-Myc (N); expressed in transfected cells
T4 sequence (P30988 25-474 L368A): T1 sequence (P30988 25-474 I279A) with A255I, L344A
Summary of the method: as §1

hCTR V357A = molecular target: T5, hCTR V357A (Homo sapiens, UniProt P30988, V357A); conditions: CV1-FlpIn cells, mean ± S.E.M.; for Emax: pERK maximal response
T5 construct: c-Myc (N); expressed in transfected cells
T5 sequence (P30988 25-474 V357A): T1 sequence (P30988 25-474 I279A) with A255I, V333A
Summary of the method: as §1

[1] = pERK, three-parameter logistic fit

Row | SMILES | Emax (hCTR I279A) [%] | Emax (hCTR L291A) [%] | Emax (hCTR L298A) [%] | Emax (hCTR L368A) [%] | Emax (hCTR V357A) [%] | EC50 (hCTR L298A) [nM] | EC50 (hCTR L368A) [nM] | EC50 (hCTR I279A; [1]) [nM] | EC50 (hCTR L291A; [1]) [nM] | EC50 (hCTR V357A; [1]) [nM]
1 | CC(C)C[C@H](NC(=O)[C@H](CC(N)=O)NC(=O)[C@H](CC(N)=O)NC(=O)[C@H](CO)NC(=O)[C@H](CO)NC(=O)[C@H](CCCNC(=N)N)NC(=O)[C@@H](NC(=O)[C@H](CC(C)C)NC(=O)[C@H](Cc1ccccc1)NC(=O)[C@H](CC(N)=O)NC(=O)[C@H](C)NC(=O)[C@H](CC(C)C)NC(=O)[C@H](CCCNC(=N)N)NC(=O)[C@H](CCC(N)=O)NC(=O)[C@@H](NC(=O)[C@H](C)NC(=O)[C@@H]1CSSC[C@H](NC(=O)[C@@H](N)CCCCN)C(=O)N[C@@H](CC(N)=O)C(=O)N[C@@H]([C@@H](C)O)C(=O)N[C@@H](C)C(=O)N[C@@H]([C@@H](C)O)C(=O)N1)[C@@H](C)O)C(C)C)C(=O)NCC(=O)N1CCC[C@H]1C(=O)N[C@H](C(=O)N[C@@H](CC(C)C)C(=O)N1CCC[C@H]1C(=O)N1CCC[C@H]1C(=O)N[C@H](C(=O)N[C@@H](CC(N)=O)C(=O)N[C@H](C(=O)NCC(=O)N[C@@H](CO)C(=O)N[C@@H](CC(N)=O)C(=O)N[C@H](C(=O)N[C@@H](Cc1ccc(O)cc1)C(N)=O)[C@@H](C)O)C(C)C)[C@@H](C)O)C(C)C [rAmy] | 88 ± 9 | 41 ± 4 | 82 ± 7 | 82 ± 8 | 40 ± 8 |  |  |  |  | 
2 | CC[C@H](C)[C@H](NC(=O)[C@H](C)NC(=O)[C@@H](NC(=O)[C@H](CCC(N)=O)NC(=O)[C@@H]1CCCN1C(=O)[C@H](Cc1ccccc1)NC(=O)[C@@H](NC(=O)[C@H](Cc1c[nH]cn1)NC(=O)[C@H](Cc1ccccc1)NC(=O)[C@H](CCCCN)NC(=O)[C@H](CC(N)=O)NC(=O)[C@H](Cc1ccccc1)NC(=O)[C@H](CC(=O)O)NC(=O)[C@H](CCC(N)=O)NC(=O)[C@@H](NC(=O)[C@H](Cc1ccc(O)cc1)NC(=O)[C@@H](NC(=O)CNC(=O)[C@H](CC(C)C)NC(=O)[C@H](CCSC)NC(=O)[C@@H]1CSSC[C@H](N)C(=O)NCC(=O)N[C@@H](CC(N)=O)C(=O)N[C@@H](CC(C)C)C(=O)N[C@@H](CO)C(=O)N[C@@H]([C@@H](C)O)C(=O)N1)[C@@H](C)O)[C@@H](C)O)[C@@H](C)O)[C@@H](C)O)C(=O)NCC(=O)N[C@H](C(=O)NCC(=O)N[C@@H](C)C(=O)N1CCC[C@H]1C(N)=O)C(C)C [hCT] | 143 ± 10 | 72 ± 9 | 84 ± 10 | 126 ± 7 | 53 ± 5 |  |  |  |  | 
3 | CC(C)C[C@H](NC(=O)CNC(=O)[C@H](C)NC(=O)[C@H](CC(C)C)NC(=O)[C@H](CCCNC(=N)N)NC(=O)[C@H](Cc1cnc[nH]1)NC(=O)[C@@H](NC(=O)[C@@H](NC(=O)[C@@H]1CSSC[C@H](NC(=O)[C@H](C)N)C(=O)N[C@@H](CC(=O)O)C(=O)N[C@@H]([C@@H](C)O)C(=O)N[C@@H](C)C(=O)N[C@@H]([C@@H](C)O)C(=O)N1)C(C)C)[C@@H](C)O)C(=O)N[C@@H](CC(C)C)C(=O)N[C@@H](CO)C(=O)N[C@@H](CCCNC(=N)N)C(=O)N[C@@H](CO)C(=O)NCC(=O)NCC(=O)N[C@H](C(=O)N[C@H](C(=O)N[C@@H](CCCCN)C(=O)N[C@@H](CC(N)=O)C(=O)N[C@@H](CC(N)=O)C(=O)N[C@@H](Cc1ccccc1)C(=O)N[C@H](C(=O)N1CCC[C@H]1C(=O)N[C@H](C(=O)N[C@@H](CC(N)=O)C(=O)N[C@H](C(=O)NCC(=O)N[C@@H](CO)C(=O)N[C@@H](CCCCN)C(=O)N[C@@H](C)C(=O)N[C@@H](Cc1ccccc1)C(N)=O)C(C)C)[C@@H](C)O)C(C)C)C(C)C)C(C)C [hαCGRP] | 97 ± 11 |  | 58 ± 8 | 84 ± 16 |  | 75.9 | 85.1 |  |  | 
4 | CC(C)C[C@H](NC(=O)[C@H](CCCCN)NC(=O)CNC(=O)[C@H](CC(C)C)NC(=O)[C@@H](NC(=O)[C@@H]1CSSC[C@H](N)C(=O)N[C@@H](CO)C(=O)N[C@@H](CC(N)=O)C(=O)N[C@@H](CC(C)C)C(=O)N[C@@H](CO)C(=O)N[C@@H]([C@@H](C)O)C(=O)N1)C(C)C)C(=O)N[C@@H](CO)C(=O)N[C@@H](CCC(N)=O)C(=O)N[C@@H](CCC(=O)O)C(=O)N[C@@H](CC(C)C)C(=O)N[C@@H](Cc1c[nH]cn1)C(=O)N[C@@H](CCCCN)C(=O)N[C@@H](CC(C)C)C(=O)N[C@@H](CCC(N)=O)C(=O)N[C@H](C(=O)N[C@@H](Cc1ccc(O)cc1)C(=O)N1CCC[C@H]1C(=O)N[C@@H](CCCNC(=N)N)C(=O)N[C@H](C(=O)N[C@@H](CC(N)=O)C(=O)N[C@H](C(=O)NCC(=O)N[C@@H](CO)C(=O)NCC(=O)N[C@H](C(=O)N1CCC[C@H]1C(N)=O)[C@@H](C)O)[C@@H](C)O)[C@@H](C)O)[C@@H](C)O [sCT] | 126 ± 5 | 107 ± 5 | 85 ± 6 | 140 ± 6 | 82 ± 7 |  |  |  |  | 
5 | CSCC[C@H](NC(=O)CNC(=O)[C@H](CO)NC(=O)[C@H](Cc1ccccc1)NC(=O)[C@H](CCCNC(=N)N)NC(=O)[C@H](Cc1c[nH]cn1)NC(=O)[C@H](Cc1ccccc1)NC(=O)[C@H](CC(N)=O)NC(=O)[C@H](CC(N)=O)NC(=O)[C@H](CC(C)C)NC(=O)[C@H](CC(N)=O)NC(=O)[C@H](CCCNC(=N)N)NC(=O)[C@H](Cc1c[nH]c2ccccc12)NC(=O)[C@H](Cc1ccc(O)cc1)NC(=O)[C@H](C)NC(=O)[C@H](CO)NC(=O)[C@H](CC(C)C)NC(=O)[C@@H](NC(=O)[C@@H]1CSSC[C@H](N)C(=O)N[C@@H](CO)C(=O)N[C@@H](CC(N)=O)C(=O)N[C@@H](CC(C)C)C(=O)N[C@@H](CO)C(=O)N[C@@H]([C@@H](C)O)C(=O)N1)C(C)C)C(=O)NCC(=O)N[C@@H](Cc1ccccc1)C(=O)NCC(=O)N1CCC[C@H]1C(=O)N[C@@H](CCC(=O)O)C(=O)N[C@H](C(=O)N1CCC[C@H]1C(N)=O)[C@@H](C)O [pCT] (H-CSNLSTCVLSAYWRNLNNFHRFSGMGFGPETP-NH2; disulfide 1-7) | 122 ± 7 | 77 ± 5 | 73 ± 6 | 159 ± 11 | 83 ± 10 | 1.1 | 1.95 | 2.19 | 9.55 | 3.72
